Results: ChEMBL document CHEMBL5380875, “Discovery of a Potent and Oral Available Complex I OXPHOS Inhibitor That Abrogates Tumor Growth and Circumvents MEKi Resistance” (J Med Chem, 2023)
Each block holds one compound with its values, some of them ahead of it. Active and inactive are the calls of the source. The rule behind the calls is not given here.

Assays:
[1] = tested on: NCI-H460; assay: Inhibition of mitochondrial complex I NADH-ubiquinone oxidoreductase in human NCI-H460 cells at 1 uM incubated for 12 hrs by seahorse XF96 metabolic flux analyzer relative to control; assay type: cell-based
[2] = tested on: NCI-H460; assay: Inhibition of mitochondrial complex II in human NCI-H460 cells at 1 uM incubated for 12 hrs by seahorse XF96 metabolic flux analyzer relative to control; assay type: cell-based
[3] = tested on: NCI-H460; assay: Induction of apoptosis in human NCI-H460 cells with high-OXPHOS harboring KRAS Q61H mutant assessed as late apoptotic cells at 500 nM incubated for 72 hrs by Annexin V-FITC/propidium iodide staining based flow cytometry analysis (reference value: 5.68%); assay type: functional
[4] = tested on: A549; assay: Induction of apoptosis in human Trametinib-resistant A549 cells with high-OXPHOS harboring KRAS G12S mutant assessed as early apoptotic cells at 500 nM incubated for 72 hrs by Annexin V-FITC/propidium iodide staining based flow cytometry analysis (reference value: 4.31%); assay type: functional
[5] = tested on: A549; assay: Induction of apoptosis in human Trametinib-resistant A549 cells with high-OXPHOS harboring KRAS G12S mutant assessed as late apoptotic cells at 500 nM incubated for 72 hrs by Annexin V-FITC/propidium iodide staining based flow cytometry analysis (reference value: 4.27%); assay type: functional
[6] = tested on: A549; assay: Cytotoxicity against human A549 cells assessed as reduction in cell viability incubated for 72 hrs by CellTiter 96 cell proliferation assay; assay type: functional, cell-based; settings: A549, 72 h
[7] = tested on: A549; assay: Cytotoxicity against human Trametinib-resistant A549 cells assessed as reduction in cell viability incubated for 72 hrs by CellTiter 96 cell proliferation assay; assay type: functional, cell-based; settings: A549, 72 h
[8] = tested on: NCI-H460; assay: Induction of apoptosis in human NCI-H460 cells with high-OXPHOS harboring KRAS Q61H mutant assessed as early apoptotic cells at 500 nM incubated for 72 hrs by Annexin V-FITC/propidium iodide staining based flow cytometry analysis (reference value: 1.95%); assay type: functional
[9] = tested on: NCI-H358; assay: Antiproliferative activity against human NCI-H358 cells with low-OXPHOS assessed as reduction in cell viability incubated for 5 days by CellTiter 96 cell proliferation assay; assay type: functional, cell-based; settings: NCI-H358, 120 h
[10] = tested on: NCI-H460; assay: Antiproliferative activity against human NCI-H460 cells with high-OXPHOS assessed as reduction in cell viability incubated for 5 days by CellTiter 96 cell proliferation assay; assay type: functional, cell-based; settings: NCI-H460, 120 h
[11] = tested on: NCI-H460; assay: Inhibition of mitochondrial complex IV in human NCI-H460 cells at 1 uM incubated for 12 hrs by seahorse XF96 metabolic flux analyzer relative to control; assay type: cell-based
[12] = tested on: NCI-H460; assay: Inhibition of mitochondrial complex III in human NCI-H460 cells at 1 uM incubated for 12 hrs by seahorse XF96 metabolic flux analyzer relative to control; assay type: cell-based
[13] = tested on: NCI-H460; assay: Inhibition of mitochondrial complex I NADH-ubiquinone oxidoreductase in human NCI-H460 cells assessed as reduction in NAD+/NADH ratio at 1 uM incubated for 12 hrs by WST-8 method relative to control; assay type: cell-based
[14] = tested on: NCI-H441; assay: Antiproliferative activity against human NCI-H441 cells with high-OXPHOS assessed as reduction in cell viability incubated for 5 days by CellTiter 96 cell proliferation assay; assay type: functional, cell-based; settings: NCI-H441, 120 h
[15] = tested on: NCI-H358; assay: Inhibition of colony formation in human NCI-H358 cells low-OXPHOS at 250 to 1000 nM incubated for 7 days by crystal violet staining based analysis; assay type: functional, cell-based; settings: dose 250-1000 nM, time 7.0 day
[16] = tested on: NCI-H460; assay: Inhibition of mitochondrial complex I NADH-ubiquinone oxidoreductase in human NCI-H460 cells assessed as reduction in oxygen consumption rate at 1 uM incubated for 12 hrs in presence of medium supplemented with pyruvate by seahorse XF96 metabolic flux analyzer; assay type: cell-based
[17] = tested on: NCI-H441; assay: Inhibition of colony formation in human NCI-H441 cells with high-OXPHOS incubated for 7 days by crystal violet staining based analysis; assay type: functional, cell-based; settings: dose 250-1000 nM, time 7.0 day
[18] = tested on: NCI-H460; assay: Inhibition of mitochondrial complex I NADH-ubiquinone oxidoreductase in human NCI-H460 cells assessed as reduction in oxygen consumption rate at 1 uM incubated for 12 hrs in presence of medium supplemented with malate by seahorse XF96 metabolic flux analyzer; assay type: cell-based
[19] = tested on: NCI-H460; assay: Inhibition of colony formation in human NCI-H460 cells with high-OXPHOS incubated for 7 days by crystal violet staining based analysis; assay type: functional, cell-based; settings: dose 250-1000 nM, time 7.0 day
[20] = tested on: NCI-H460; assay: Inhibition of mitochondrial complex I NADH-ubiquinone oxidoreductase in human NCI-H460 cells assessed as reduction in NAD+/NADH ratio at 1 uM incubated for 12 hrs by WST-8 method; assay type: cell-based
[21] = tested on: NCI-H460; assay: Inhibition of mitochondrial complex I NADH-ubiquinone oxidoreductase in human NCI-H460 cells assessed as reduction in oxygen consumption rate at 1 uM incubated for 12 hrs in presence of medium supplemented with succinate by seahorse XF96 metabolic flux analyzer; assay type: cell-based

Structure (SMILES): Cc1c(C(=O)N2CCN(C)CC2)nnn1Cc1ccc(C(=O)Nc2ccc(C(F)(F)F)cc2)nc1
- inhibition [1]: 11.5%
- inhibition [2]: -1.2%

Structure (SMILES): CC(=O)Nc1cccc(-n2c(=O)n(C3CC3)c(=O)c3c(Nc4ccc(I)cc4F)n(C)c(=O)c(C)c32)c1 [TRAMETINIB]
- Activity [3]: 8.3%
- Activity [4]: 6.94%
- Activity [5]: 15.6%
- IC50 [6]: 296 nM
- IC50 [7]: 38100 nM
- Activity [8]: 2.51%

- IC50 [9]: > 1000 nM
- IC50 [10]: 25.6 nM
Structure (SMILES): Cc1c(C(=O)N2CCN(Cc3ccc(OCC(F)(F)F)cc3)CC2)nnn1Cc1ccc(C(=O)Nc2ccc3ccccc3c2)nc1
- inhibition [1]: 52.3%
- inhibition [2]: 7%
- inhibition [11]: 3.9%
- inhibition [12]: 11%
- inhibition [13]: 57.9%

Structure (SMILES): CCc1c(C(=O)N2CCN(Cc3ccc(OCC(F)(F)F)cc3)CC2)nnn1Cc1ccc(C(=O)Nc2ccc(C(F)(F)F)cc2)nc1
- inhibition [1]: 42.6%

Structure (SMILES): Cc1c(C(=O)N2CCN(Cc3ccccc3OCC(F)(F)F)CC2)nnn1Cc1ccc(C(=O)Nc2ccc(C(F)(F)F)cc2)nc1
- inhibition [1]: 6.7%

Structure (SMILES): Cc1c(C(=O)N2CCN(C(=O)c3ccc(OC(F)(F)F)cc3)CC2)nnn1Cc1ccc(C(=O)Nc2ccc(C(F)(F)F)cc2)nc1
- inhibition [1]: 43.8%

- IC50 [9]: 856 nM
- IC50 [10]: 6.3 nM
Structure (SMILES): Cc1c(C(=O)N2CCN(Cc3ccc(OCC(F)(F)F)cc3)CC2)nnn1Cc1ccc(C(=O)Nc2ccc(OC(F)(F)F)cc2)nc1
- inhibition [1]: 58.4%
- inhibition [2]: 8.8%
- inhibition [11]: -6.7%
- inhibition [12]: 9%
- inhibition [13]: 74.2%

Structure (SMILES): Cc1c(C(=O)N2CCN(S(C)(=O)=O)CC2)nnn1Cc1ccc(C(=O)Nc2ccc(C(F)(F)F)cc2)nc1
- inhibition [1]: 20.4%

Structure (SMILES): CCN1CCN(C(=O)c2nnn(Cc3ccc(C(=O)Nc4ccc(C(F)(F)F)cc4)nc3)c2C)CC1
- inhibition [1]: -4.1%

Structure (SMILES): Cc1ccc(NC(=O)c2ccc(Cn3nnc(C(=O)N4CCN(Cc5ccc(OCC(F)(F)F)cc5)CC4)c3C)cn2)cc1
- inhibition [1]: 47.9%

Structure (SMILES): Cc1nnn(Cc2ccc(C(=O)Nc3ccc(F)cc3)nc2)c1C(=O)N1CCN(Cc2ccc(OCC(F)(F)F)cc2)CC1
- inhibition [1]: 9%

Structure (SMILES): Cc1nnn(Cc2ccc(C(=O)Nc3ccc(Br)cc3)nc2)c1C(=O)N1CCN(Cc2ccc(OCC(F)(F)F)cc2)CC1
- inhibition [1]: 7.7%

Structure (SMILES): Cc1c(C(=O)N2CCN(Cc3ccc(OC(F)(F)F)cc3)CC2)nnn1Cc1ccc(C(=O)Nc2ccc(C(F)(F)F)cc2)nc1
- inhibition [1]: 50.5%

- IC50 [9]: 605 nM
- IC50 [10]: 3.8 nM
Structure (SMILES): O=C(Nc1ccc(C(F)(F)F)cc1)c1ccc(Cn2nnc(C(=O)N3CCN(Cc4ccc(OCC(F)(F)F)cc4)CC3)c2C(F)(F)F)cn1
- inhibition [1]: 59.3%
- inhibition [2]: 4.7%
- inhibition [11]: 1.6%
- inhibition [12]: 12.1%
- inhibition [13]: 85.1%

Structure (SMILES): Cc1c(C(=O)N2CCN(Cc3ccccc3)CC2)nnn1Cc1ccc(C(=O)Nc2ccc(C(F)(F)F)cc2)nc1
- inhibition [1]: 10.4%

Structure (SMILES): O=C(Nc1ccc(C(F)(F)F)cc1)c1ccc(Cn2nnc(C(=O)N3CCN(Cc4ccc(OCC(F)(F)F)cc4)CC3)c2-c2ccccc2)cn1
- inhibition [1]: 12.6%

Structure (SMILES): Cc1c(C(=O)N2CCN(Cc3ccc(OCC(F)(F)F)cc3)CC2)nnn1Cc1ccc(C(=O)NC2CCOCC2)nc1
- inhibition [1]: 10.5%

Structure (SMILES): CCNC(=O)c1ccc(Cn2nnc(C(=O)N3CCN(Cc4ccc(OCC(F)(F)F)cc4)CC3)c2C)cn1
- inhibition [1]: 36.3%

- IC50 [9]: > 1000 nM
- IC50 [10]: 7.8 nM
Structure (SMILES): Cc1c(C(=O)N2CCN(Cc3ccc(C(C)(C)C)cc3)CC2)nnn1Cc1ccc(C(=O)Nc2ccc(C(F)(F)F)cc2)nc1
- inhibition [1]: 50.5%
- inhibition [2]: -0.9%
- inhibition [11]: 12.2%
- inhibition [12]: 17.8%
- inhibition [13]: 73.2%

- IC50 [9]: 588 nM
- IC50 [10]: 10.6 nM
Structure (SMILES): O=C(Nc1ccc(C(F)(F)F)cc1)c1ccc(Cn2cc(C(=O)N3CCN(Cc4ccc(OCC(F)(F)F)cc4)CC3)nn2)cn1
- inhibition [1]: 52%
- inhibition [2]: 7.4%
- inhibition [11]: -2%
- inhibition [12]: 26%
- inhibition [13]: 65.7%

Structure (SMILES): COc1ccc(NC(=O)c2ccc(Cn3nnc(C(=O)N4CCN(Cc5ccc(OCC(F)(F)F)cc5)CC4)c3C)cn2)cc1
- inhibition [1]: 49.2%

Structure (SMILES): Cc1c(C(=O)N2CCN(Cc3ccc(C(C)C)cc3)CC2)nnn1Cc1ccc(C(=O)Nc2ccc(C(F)(F)F)cc2)nc1
- inhibition [1]: 36.7%

Structure (SMILES): Cc1c(C(=O)N2CCN(Cc3ccc(OCC(F)(F)F)cc3)CC2)nnn1Cc1ccc(C(=O)Nc2ccccc2C(F)(F)F)nc1
- inhibition [1]: 36.3%

- IC50 [9]: > 10000 nM
- IC50 [14]: 169 nM
- IC50 [10]: 257 nM
Structure (SMILES): Cc1c(C(=O)N2CCN(Cc3ccc(OCC(F)(F)F)cc3)CC2)nnn1Cc1ccc(C(=O)Nc2cccc(C(F)(F)F)c2)nc1
- inhibition [1]: 41.2%
- inhibition [15]: inactive
- inhibition [16]: Active
- inhibition [2]: 1.2%
- inhibition [17]: Dose-Dependent Effect
- inhibition [18]: Active
- inhibition [19]: Dose-Dependent Effect
- inhibition [11]: -0.1%
- inhibition [20]: Active
- inhibition [21]: inactive
- inhibition [12]: 14%
- inhibition [13]: 39.1%

Structure (SMILES): Cc1c(C(=O)N2CCN(Cc3cccc(OCC(F)(F)F)c3)CC2)nnn1Cc1ccc(C(=O)Nc2ccc(C(F)(F)F)cc2)nc1
- inhibition [1]: 49.9%

Structure (SMILES): Cc1c(C(=O)N2CCN(Cc3ccc(OCC(F)(F)F)cc3)CC2)nnn1Cc1ccc(C(=O)Nc2ccc(C(C)(C)C)cc2)nc1
- inhibition [1]: 45%

Structure (SMILES): Cc1c(C(=O)N2CCN(Cc3ccc(OCC(F)(F)F)cc3)CC2)nnn1Cc1ccc(C(=O)NCC(C)C)nc1
- inhibition [1]: 5.6%

Structure (SMILES): Cc1ccc(CN2CCN(C(=O)c3nnn(Cc4ccc(C(=O)Nc5ccc(C(F)(F)F)cc5)nc4)c3C)CC2)cc1
- inhibition [1]: 38.1%

- IC50 [9]: > 1000 nM
- IC50 [10]: 11.7 nM
Structure (SMILES): Cc1c(C(=O)N2CCN(Cc3ccc(OCC(F)(F)F)cc3)CC2)nnn1Cc1ccc(C(=O)Nc2ccc(F)cc2)nc1
- inhibition [1]: 54.2%
- inhibition [2]: 9.4%
- inhibition [11]: 26.6%
- inhibition [12]: 2.6%
- inhibition [13]: 72.5%

Structure (SMILES): Cc1c(C(=O)N2CCN(Cc3ccc(Cl)cc3)CC2)nnn1Cc1ccc(C(=O)Nc2ccc(C(F)(F)F)cc2)nc1
- inhibition [1]: 20.4%
- inhibition [2]: 6.8%
- inhibition [11]: 8.9%
- inhibition [12]: 3.5%

- IC50 [9]: > 1000 nM
- IC50 [10]: 7.6 nM
Structure (SMILES): Cc1c(C(=O)N2CCN(Cc3ccc(OCC(F)(F)F)cc3)CC2)nnn1Cc1ccc(C(=O)Nc2ccc(Cl)cc2)nc1
- inhibition [1]: 60.1%
- inhibition [2]: 13.5%
- inhibition [11]: 26%
- inhibition [12]: 30.3%
- inhibition [13]: 72.5%

Structure (SMILES): Cc1nnn(Cc2ccc(C(=O)Nc3ccc(C(F)(F)F)cc3)nc2)c1C(=O)N1CCN(Cc2ccc(OCC(F)(F)F)cc2)CC1
- inhibition [1]: 15.7%

- IC50 [9]: 450 nM
- IC50 [10]: 5.5 nM
Structure (SMILES): Cc1c(C(=O)N2CCN(Cc3ccc(OCC(F)(F)F)cc3)CC2)nnn1Cc1ccc(C(=O)Nc2ccc(Br)cc2)nc1
- inhibition [1]: 66%
- inhibition [2]: 22.5%
- inhibition [11]: 20%
- inhibition [12]: 33.7%
- inhibition [13]: 62.6%

Structure (SMILES): Cc1nnn(Cc2ccc(C(=O)Nc3ccc(OC(F)(F)F)cc3)nc2)c1C(=O)N1CCN(Cc2ccc(OCC(F)(F)F)cc2)CC1
- inhibition [1]: 20.4%
